Results on three compounds are retold here after patent publication US6022983A, “Pyronin antibacterials, process and novel intermediates thereto” (Scriptgen Pharmaceuticals, Inc., priority 1998, dated 2000).

In assay [1] the test system is E. coli. Description: Broth microdilution MIC, E. coli. Type of assay: cell-based. The note with it: Escherichia coli; Table II. On the procedure:
(§1) Different dilutions are performed for natural product extracts.
Background: In broth dilution the organism is exposed to a series of concentrations in liquid medium.

Assay [2] relates to S. aureus*. Description: Broth microdilution MIC, S. aureus* mutant strain. Type of assay: cell-based. The note with it: Staphylococcus aureus, read-out: MIC S. aureus*. As for the experimental part:
as §1

Assay [3] concerns S. aureus. As to the kind of experiment: Broth microdilution MIC, S. aureus. Type of assay: cell-based. The conditions noted are these: for MIC: Staphylococcus aureus, Table II. On the procedure:
as §1

Assay [4] has as its target E. coli RNA polymerase (Escherichia coli, UniProt P0A8T7+P0A8V2). As to the kind of experiment: In vitro transcription assay, E. coli RNA polymerase. Type of assay: biochemical. The conditions noted are these: for IC50: Table II, read-out: In vitro transcription (E.coli RNAP) IC50 (converted); for relative potency in in vitro transcription assay (FIG. 20a,b): comparison in words. As for the experimental part: In vitro transcription reactions. [α^32 P] UTP-incorporated RNA was synthesized in 50 μl reaction volumes containing transcription buffer (50 mM Tris-HCl, pH 8.0, 200 mM KCl, 10 mM MgCl2, 10 mM DTT and 1.5 μM BSA), 1 μg of DNA template, 4 μM UTP containing 5 μCi of [α^32 P] UTP, 400 μM each of ATP, GTP, and CTP. After incubation for 60 minutes at 25° C., the reaction is terminated with 100 μl 10% TCA, which also precipitates the newly transcribed RNA.
Biological Evaluation of (±)-Myxopyronin A & B. The biological activities of the myxypyronins were evaluated with an in vitro transcription assay using E. coli RNA polymerase (FIG. 20a,b). […] As a validation of the in vitro transcription assay, a known transcription inhibitor, rifampicin, was included in the assay.

Assay [5] concerns E. coli* (mutant strain that has permeabilized cell wall). As to the kind of experiment: Broth microdilution MIC, E. coli* mutant with permeabilized cell wall. Type of assay: cell-based. The note with it: Escherichia coli, read-out: MIC E. coli*. As for the experimental part: as §1
Assay [6] deals with rifampicin susceptible strains. As to the kind of experiment: microbe, parasite or virus in culture. The conditions noted are these: Staphylococcus aureus. On the procedure:
(§2) Microdilution Minimal Inhibitory Concentration (MIC) and Minimum Bactericidal Concentration (MBC) Assays
(§3) The MIC is reported as a range between the concentration at which no growth is observed and the concentration of the dilution which immediately followed. Selected inhibitors from the RNA polymerase screen described above were tested for their ability to inhibit bacterial growth in a broth microdilution assay as follows. […] Dilution of antimicrobial agents is performed in a sterile, covered 96-well microliter plate with flat bottom wells (Costar #9017), and each well contains 100 μL of both +/- antimicrobial agent. The final concentrations of the small molecule antimicrobial agents are 100, 50, 25, 12.5, 6.25, 3.12, 1.56, 0.78, 0.39, 0.20, 0.10, and 0.05 μg/mL, respectively. Different dilutions are performed for natural product extracts. They are first diluted 100-fold with Mueller-Hinton broth. The final dilutions of the natural product extracts are 200, 400, 800, 1600, 3200, 6400, 12800, 25600, 51200, 1×105, 2×105, and 4×105 -fold. A 1 % DMSO (no-drug) row is prepared in Mueller-Hinton broth as a control for 100% growth on each plate. A Mueller-Hinton broth only with no bacteria growth is also included as a negative control for each plate. Ampicillin and rifampin are used as positive controls against all bacterial strains in every experiment.
(§4) The overnight culture of a single colony is diluted in sterile Mueller-Hinton broth so that, after inoculation, each well contains approximately 5×10^5 CFU/mL. Within 15 minutes of preparation, […] of the adjusted inoculum suspension is added to the microliter plate. Each well is diluted with an equal volume of the antimicrobial agent/control substance diluted with sterile Mueller-Hinton broth. The inoculated microliter plate is incubated at 35° C. for 16-20 hours. The turbidity of each well is determined by measuring the absorbance at 595 nm on the BioRad Model 3550-UV microplate reader. The rows containing broth only (no cells) serve as a control, and the rows containing the titration of 1% DMSO serve as a control for 100% growth. The average of the broth only controls is subtracted from the average of each duplicate. This value is subsequently normalized to the average of the DMSO controls.

Assay [7] has as its system rifampicin resistant strains. As to the kind of experiment: microbe, parasite or virus in culture. The conditions noted are these: Staphylococcus aureus. On the procedure:
as §2, §3, §4

Values after ≈ are worked out from the molar mass of the structure shown. Where two headings read alike, the source gives them in different places. Bounds are passed on as bounds.

Sequence of E. coli RNA polymerase (P0A8V2 whole entry): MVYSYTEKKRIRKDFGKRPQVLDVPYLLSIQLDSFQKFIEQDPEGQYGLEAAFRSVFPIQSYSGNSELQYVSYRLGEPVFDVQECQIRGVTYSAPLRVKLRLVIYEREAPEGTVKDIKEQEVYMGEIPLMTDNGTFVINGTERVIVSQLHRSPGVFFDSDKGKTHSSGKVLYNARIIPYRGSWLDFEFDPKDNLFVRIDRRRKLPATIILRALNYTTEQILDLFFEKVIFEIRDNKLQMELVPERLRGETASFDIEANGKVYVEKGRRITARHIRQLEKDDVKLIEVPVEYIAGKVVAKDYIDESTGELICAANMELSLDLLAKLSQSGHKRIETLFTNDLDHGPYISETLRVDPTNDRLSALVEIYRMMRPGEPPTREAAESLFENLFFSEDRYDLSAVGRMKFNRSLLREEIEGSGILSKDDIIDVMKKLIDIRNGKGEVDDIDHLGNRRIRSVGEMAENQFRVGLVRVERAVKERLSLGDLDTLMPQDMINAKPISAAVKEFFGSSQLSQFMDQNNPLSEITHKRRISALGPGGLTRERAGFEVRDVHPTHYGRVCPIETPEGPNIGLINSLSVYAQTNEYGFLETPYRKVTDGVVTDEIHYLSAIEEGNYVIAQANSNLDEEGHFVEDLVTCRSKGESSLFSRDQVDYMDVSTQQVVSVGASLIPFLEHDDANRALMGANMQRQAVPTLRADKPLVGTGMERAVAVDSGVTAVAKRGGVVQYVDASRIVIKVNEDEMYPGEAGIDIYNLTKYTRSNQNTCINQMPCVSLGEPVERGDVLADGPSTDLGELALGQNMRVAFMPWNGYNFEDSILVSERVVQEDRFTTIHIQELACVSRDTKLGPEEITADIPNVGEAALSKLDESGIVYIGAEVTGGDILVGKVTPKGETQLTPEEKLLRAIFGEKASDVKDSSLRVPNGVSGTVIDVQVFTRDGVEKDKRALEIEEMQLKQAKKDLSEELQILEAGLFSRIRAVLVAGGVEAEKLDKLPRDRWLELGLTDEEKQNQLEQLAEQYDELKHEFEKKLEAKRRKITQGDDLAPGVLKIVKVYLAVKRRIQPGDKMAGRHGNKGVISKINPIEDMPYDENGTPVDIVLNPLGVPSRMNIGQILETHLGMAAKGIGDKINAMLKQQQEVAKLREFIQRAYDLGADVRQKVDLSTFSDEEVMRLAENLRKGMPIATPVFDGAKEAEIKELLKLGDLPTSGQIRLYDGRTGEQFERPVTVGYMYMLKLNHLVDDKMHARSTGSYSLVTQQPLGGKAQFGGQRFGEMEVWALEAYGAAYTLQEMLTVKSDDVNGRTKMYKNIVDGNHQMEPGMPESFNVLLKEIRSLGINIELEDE
Sequence of E. coli RNA polymerase (P0A8T7 whole entry): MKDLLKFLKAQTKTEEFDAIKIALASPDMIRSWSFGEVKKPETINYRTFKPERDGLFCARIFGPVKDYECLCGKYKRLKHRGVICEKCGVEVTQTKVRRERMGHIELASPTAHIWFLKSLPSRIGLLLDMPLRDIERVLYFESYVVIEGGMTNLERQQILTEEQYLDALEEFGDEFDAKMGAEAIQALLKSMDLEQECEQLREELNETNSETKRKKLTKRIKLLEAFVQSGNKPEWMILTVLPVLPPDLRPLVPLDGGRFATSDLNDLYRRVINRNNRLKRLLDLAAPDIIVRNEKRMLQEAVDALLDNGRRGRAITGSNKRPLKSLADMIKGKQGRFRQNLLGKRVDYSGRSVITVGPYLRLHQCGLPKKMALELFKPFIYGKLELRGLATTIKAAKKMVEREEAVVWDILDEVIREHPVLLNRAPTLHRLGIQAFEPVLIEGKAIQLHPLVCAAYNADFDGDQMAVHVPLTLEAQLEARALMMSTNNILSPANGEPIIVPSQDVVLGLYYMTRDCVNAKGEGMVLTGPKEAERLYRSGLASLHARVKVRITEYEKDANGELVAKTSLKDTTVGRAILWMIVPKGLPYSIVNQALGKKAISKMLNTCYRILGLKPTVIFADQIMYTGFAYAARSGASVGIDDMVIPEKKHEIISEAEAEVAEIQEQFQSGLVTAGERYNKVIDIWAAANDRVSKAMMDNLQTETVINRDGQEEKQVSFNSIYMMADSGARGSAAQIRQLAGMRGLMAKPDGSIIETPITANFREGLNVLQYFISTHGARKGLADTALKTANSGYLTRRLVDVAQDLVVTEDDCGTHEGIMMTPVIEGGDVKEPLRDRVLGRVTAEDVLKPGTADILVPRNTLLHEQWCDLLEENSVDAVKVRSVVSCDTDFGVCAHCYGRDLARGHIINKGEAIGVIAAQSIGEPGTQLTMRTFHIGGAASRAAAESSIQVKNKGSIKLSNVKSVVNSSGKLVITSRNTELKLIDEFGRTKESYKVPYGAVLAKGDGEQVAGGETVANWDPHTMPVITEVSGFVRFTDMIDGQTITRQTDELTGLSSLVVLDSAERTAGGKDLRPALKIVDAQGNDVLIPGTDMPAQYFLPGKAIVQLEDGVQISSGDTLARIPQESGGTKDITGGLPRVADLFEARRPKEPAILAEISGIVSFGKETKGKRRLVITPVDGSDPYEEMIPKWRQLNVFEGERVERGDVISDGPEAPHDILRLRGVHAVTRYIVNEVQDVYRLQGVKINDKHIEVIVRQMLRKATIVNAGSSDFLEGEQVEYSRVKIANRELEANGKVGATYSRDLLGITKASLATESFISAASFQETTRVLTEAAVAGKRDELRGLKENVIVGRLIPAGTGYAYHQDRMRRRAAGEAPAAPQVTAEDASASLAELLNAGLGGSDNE
Sequence of E. coli RNA polymerase (P0A7Z4 whole entry partner): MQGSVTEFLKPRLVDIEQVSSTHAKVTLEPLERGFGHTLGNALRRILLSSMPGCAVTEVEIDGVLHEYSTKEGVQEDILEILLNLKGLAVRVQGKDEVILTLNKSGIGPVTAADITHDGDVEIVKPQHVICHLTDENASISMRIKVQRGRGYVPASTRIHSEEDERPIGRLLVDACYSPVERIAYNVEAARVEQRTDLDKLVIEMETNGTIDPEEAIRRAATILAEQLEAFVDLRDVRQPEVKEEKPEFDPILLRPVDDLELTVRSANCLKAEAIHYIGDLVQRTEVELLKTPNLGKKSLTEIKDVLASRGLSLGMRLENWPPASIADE
Sequence of E. coli RNA polymerase (P0A800 whole entry partner): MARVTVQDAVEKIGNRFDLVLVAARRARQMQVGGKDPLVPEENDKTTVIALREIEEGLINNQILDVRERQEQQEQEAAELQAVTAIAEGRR

As usually defined, the IC50 is the concentration at which inhibition is half-maximal. Regarding `CCCC/C(C)=C/C=C(\C)C(=O)c1c(O)cc(C(C)CC/C=C/NC(=O)OC)oc1=O` (racemic) [(±)-Myxo B, (±)-Myxopyronin B], the MIC was greater than 30 µg/mL in assay [1], 0.5 µg/mL (≈ 1.16 µM) in assay [2], 0.5 µg/mL (≈ 1.16 µM) in assay [3] and 2 µg/mL (≈ 4.63 µM) in assay [5]. Also, in assay [3] (MIC values of Table II, B versus A), the “fold more potent cell-based activities than myxopyronin A” value is listed as “up to 30 fold”. The IC50 in assay [4] is 11.6 µM. In addition, the “relative potency in in vitro transcription assay (FIG. 20a,b)” value in assay [4] is listed as “more potent molecule than A”.
As to `CO[C@H]1/C=C/O[C@@]2(C)Oc3c(C)c(O)c4c(O)c(c(/C=N/N5CCN(C)CC5)c(O)c4c3C2=O)NC(=O)/C(C)=C\C=C\[C@H](C)[C@H](O)[C@@H](C)[C@@H](O)[C@@H](C)[C@H](OC(C)=O)[C@@H]1C` [rifampicin], the MIC was 10 µM (≈ 8.23 µg/mL) in assay [6] (read-out: MIC against susceptible strains, Example 9 statement b281); roughly 0.01 µM (≈ 0.00823 µg/mL) in assay [6] (read-out: MIC against susceptible strains, background statement b31); greater than 10 µM in assay [7] (read-out: MIC against resistant strains); greater than 100 µM in assay [7] (read-out: MIC against rifampicin resistant strains).
Consider `CCC/C(C)=C/C=C(\C)C(=O)c1c(O)cc(C(C)CC/C=C/NC(=O)OC)oc1=O` (racemic) [(±)-Myxo A, (±)-Myxopyronin A], for which the MIC in assay [1] was greater than 30 µg/mL; in assay [2], 8 µg/mL (≈ 19.2 µM); in assay [3] it was 15 µg/mL (≈ 35.9 µM); in assay [5] it was 4 to 8 µg/mL (≈ 9.58 to 19.2 µM). The IC50 in assay [4] is 47.9 µM. The “relative potency in in vitro transcription assay (FIG. 20a,b)” value in assay [4] is reported as “equally potent as the natural product mixtures”.
